Results as given in patent publication US20260207624A1, “COADMINISTRATION OF ESTROGEN WITH ESTROGEN RECEPTOR MODULATOR OR DEGRADER OR ER TARGETED PROTAC FOR THE TREATMENT OF ESTROGEN RESPONSIVE CANCERS” (Duke University, priority 2022, published 2026).

Legend:
[1] = biological target: T1, ER (Homo sapiens, UniProt P03372); assay: ER downregulation in breast cancer cell lines by in-cell western; type: cell-based; conditions: MCF7, BT483, T47D, ZR751, CAMA1 cells, 24 hours after treatment
T1 construct: SERDs differ in the efficacy of ER downregulation in breast cancer cell lines; endogenous in cells; host or cells: MCF7, BT483, T47D, ZR751, CAMA1
T1 sequence (P03372 1-595): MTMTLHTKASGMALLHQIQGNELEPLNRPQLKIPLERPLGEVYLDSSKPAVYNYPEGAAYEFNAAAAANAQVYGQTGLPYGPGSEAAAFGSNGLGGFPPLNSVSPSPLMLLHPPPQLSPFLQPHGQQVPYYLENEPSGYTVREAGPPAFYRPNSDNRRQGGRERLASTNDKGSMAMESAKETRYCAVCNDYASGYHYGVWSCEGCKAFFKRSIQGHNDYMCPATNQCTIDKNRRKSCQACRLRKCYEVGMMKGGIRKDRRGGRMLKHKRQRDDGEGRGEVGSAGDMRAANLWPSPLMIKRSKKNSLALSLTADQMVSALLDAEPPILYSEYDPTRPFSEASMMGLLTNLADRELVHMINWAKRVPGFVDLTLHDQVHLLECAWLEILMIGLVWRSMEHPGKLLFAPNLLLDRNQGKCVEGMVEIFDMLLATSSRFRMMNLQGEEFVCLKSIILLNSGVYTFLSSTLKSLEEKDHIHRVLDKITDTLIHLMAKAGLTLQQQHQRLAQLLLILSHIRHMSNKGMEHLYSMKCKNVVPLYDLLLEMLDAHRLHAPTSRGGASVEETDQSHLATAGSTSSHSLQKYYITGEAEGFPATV
Method: FIGS. 8A-8B. SERDs differ in the efficacy of ER downregulation in breast cancer cell lines. Breast cancer cells, including MCF7, BT483, T47D, ZR751, and CAMA1, were plated in phenol red free media supplemented with charcoal stripped FBS prior to treatment in triplicate wells with the indicated SERMs or SERDs (10-11-10-5 M final concentration). 24 hours after treatment, cells were fixed to the plates, and ER levels were analyzed by in-cell western using a fluorophore conjugated secondary antibody. Average detected ER levels were normalized to well DNA content using DRAQ5 staining. Relative ER turnover was calculated as a ratio of normalized ER levels detected in treated wells to untreated wells. Data were representative of at least 3 independent experiments. Data for each cell line were graphed in 2 panels to categorize SERDs by chemical properties, separating basic SERDs (FIG. 8A) and those having carboxylic acid group(s) (FIG. 8B). Serm-like SERDs bazedoxifene and elacestrant were also presented in (FIG. 8A) for reference. Fulvestrant was included on both graphs for all cell lines to facilitate comparison.

[2] = tested on: Breast cancer cells; assay: Anti-proliferative activity in breast cancer cell lines (DNA content, Hoechst staining); type: cell-based; conditions: with estradiol 0.1 nM, 7 days after treatment
Method: FIGS. 9A-9C. Anti-proliferative activities of SERDs in select breast cancer cell lines differ primarily in potency. Breast cancer cells were plated in phenol red free media supplemented with charcoal stripped FBS prior to treatment in triplicate wells with the indicated SERMs and SERM-like SERDs (FIG. 9A), acidic SERDs (FIG. 9B), basic SERDs (FIG. 9C) at 10^-12 to 10^-5 M final concentration, followed by addition of estradiol (E2, 0.1 nM) or insulin (2 nM, MCF7 cell line only, bottom panels). 7 days after treatment, plates were harvested and DNA quantitated using fluorescence following Hoechst staining. Average detected fluorescence was normalized to wells receiving no ligand treatment, and relative change in DNA fluorescence was calculated compared to wells treated only with E2. Data are representative of at least 3 independent experiments.

With `CCNCCc1ccc(CN(CC)c2cc(OC)ccc2[C@@H]2CCc3cc(O)ccc3C2)cc1` [elacestrant] the “ER downregulation / ER degradation” value [1] was “generally the least efficient SERD” and the “inhibition of cellular proliferation” value [2] was “efficacy similar to that observed for other SERDs”.
